Measurements: paper PMC12372887, “Mechanism and cellular actions of the potent AMPK inhibitor BAY-3827” (Science Advances, 2025)
Values joined by “and” are separate entries in the source; they are usually repeats but may differ in a detail not shown here. Equal entries are not always repeated.

How the values were obtained:
[1] = system: pSer79-ACC1 in U2OS cells; assay: HTRF assay of Ser79-ACC1 phosphorylation in U2OS cells; assay type: cell-based, human; conditions: for IC50: Homo sapiens, U2OS
Method: Human osteosarcoma U2OS WT cells were obtained from John Rouse (MRC Protein Phosphorylation and Ubiquitylation Unit, University of Dundee) and were cultured in DMEM high glucose + GlutaMAX Supplement, pyruvate (Thermo Fisher Scientific, catalog no. 31966-021) containing penicillin G (100 U/ml), streptomycin (100 μg/ml), and 10% (v/v) FBS seeding with 50,000 cells per well in a 50-μl volume in culture 96-well cell culture plates (Corning Incorporated costar, #3599). The next day, the media were changed to 50 μl of serum-free media, and 50 μl of serum-free media containing BAY-3827 or BAY-974 was dispensed and left to incubate at 37°C for 30 min. […] HTRF assays using either phospho-Ser^79-ACC1 kit (Revvity, #64ACCPEG) or phospho-Thr^172-AMPK kit (Revvity, #64AMPKPEG) were performed in triplicate in HTRF 96-well low volume white plates (Revvity, #66PL96001) following manufacturer’s instructions. Sealed plates incubated overnight in darkness conditions were scanned at room temperature in Multimode Plate Reader EnVision (PerkinElmer) machine following HTRF setup recommendations for EnVision (Revvity), equipped with a top mirror LANCE/DELFIA single mirror (#412), a UV2 (TRF) 320 excitation filter (#111), emission filter APC 665 (#205), and second emission filter Europium 615 (#203), with a 2000-μs cycle and 60-μs delay, with the number of flashes set to 100 as well as for the 2nd detector. Results were viewed in EnVision Manager software (version 1.13.3009.1401) where 665/615 ratios were calculated, and data were normalized to control condition as %. All assay ratios between control lysate signal/nonspecific signal were greater than 2 as expected of a successful assay following the manufacturer’s instructions. Data were visualized in GraphPad Prism v10.

[2] = molecular target: T1, AMPKα2β2γ1 (Homo sapiens, UniProt O43741+P54619+P54646); assay: Cell-free AMPK kinase assay (SAMS peptide); assay type: biochemical
T1 construct: made in house; host or cells: HEK293 (transient transfection, anti-FLAG immunoprecipitate)
T1 sequence (P54646 whole entry): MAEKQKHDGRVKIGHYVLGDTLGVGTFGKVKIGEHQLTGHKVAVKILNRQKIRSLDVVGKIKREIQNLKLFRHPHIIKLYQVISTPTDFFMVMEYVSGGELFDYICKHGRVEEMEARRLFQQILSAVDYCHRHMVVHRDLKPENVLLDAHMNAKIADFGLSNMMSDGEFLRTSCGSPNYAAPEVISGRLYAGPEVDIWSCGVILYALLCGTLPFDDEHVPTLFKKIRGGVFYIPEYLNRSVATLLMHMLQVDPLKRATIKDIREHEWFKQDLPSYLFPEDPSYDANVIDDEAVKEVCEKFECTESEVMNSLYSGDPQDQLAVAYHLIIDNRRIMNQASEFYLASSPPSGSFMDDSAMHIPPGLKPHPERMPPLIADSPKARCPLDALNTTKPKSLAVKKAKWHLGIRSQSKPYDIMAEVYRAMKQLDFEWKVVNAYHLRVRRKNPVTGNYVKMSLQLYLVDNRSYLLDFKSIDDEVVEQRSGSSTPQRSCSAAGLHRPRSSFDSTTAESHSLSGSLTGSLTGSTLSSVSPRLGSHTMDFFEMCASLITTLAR
T1 sequence (O43741 whole entry partner): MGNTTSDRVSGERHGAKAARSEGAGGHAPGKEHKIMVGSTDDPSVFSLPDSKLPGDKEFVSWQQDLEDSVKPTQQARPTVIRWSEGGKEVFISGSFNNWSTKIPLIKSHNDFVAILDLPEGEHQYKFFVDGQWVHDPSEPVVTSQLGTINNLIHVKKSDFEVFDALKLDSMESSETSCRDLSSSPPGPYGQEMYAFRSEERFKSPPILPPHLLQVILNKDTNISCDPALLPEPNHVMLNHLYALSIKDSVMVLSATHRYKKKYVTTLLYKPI
T1 sequence (P54619 whole entry partner): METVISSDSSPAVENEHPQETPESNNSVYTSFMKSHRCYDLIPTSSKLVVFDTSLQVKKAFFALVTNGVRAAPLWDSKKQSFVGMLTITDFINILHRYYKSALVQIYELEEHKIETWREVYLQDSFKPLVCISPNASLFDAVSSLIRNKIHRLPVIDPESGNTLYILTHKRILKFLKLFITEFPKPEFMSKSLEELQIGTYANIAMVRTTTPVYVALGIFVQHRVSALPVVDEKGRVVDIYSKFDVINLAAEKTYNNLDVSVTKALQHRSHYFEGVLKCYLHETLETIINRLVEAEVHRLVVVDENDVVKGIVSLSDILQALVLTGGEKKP
Method: (§1) Heterotrimeric human AMPK FLAG- α1β1γ1, FLAG- α2β1γ1, and FLAG- α2β2γ1, as well as human FLAG-CaMKK2 and FLAG-ULK1, were produced in mammalian HEK293 cells as described ([66], [67]). For AMPK expression, the cells were triply transfected at 60% confluency using FuGene HD (Roche Applied Science) and 1 μg of pcDNA3 plasmid expression constructs for AMPK Flag-α1, β1-Myc, β2-Myc, and HA-γ1. For CaMKK2 expression, the cells were transfected with 1 μg of pcDNA3 Flag-CaMKK2 plasmid. For ULK1 expression, the cells were transfected with […] of pcDNA3 FLAG-ULK1 plasmid. After 48 hours, the transfected cells were harvested by rinsing with ice-cold PBS, followed by rapid lysis using 500 μl of lysis buffer. AMPK, CaMKK2, and ULK1 kinase activities were determined by phosphorylation of synthetic peptide substrates: SAMS (HMRSAMSGLHLVKRR), CaMKKtide ([…]), and S108tide. (KLPLTRSHNNFVARRR), respectively. Briefly, recombinant AMPK, CaMKK2, or ULK1 were immunoprecipitated from 10 μg of transfected cultured cell lysate using 10 μl of anti-FLAG M2 agarose beads [50% (v/v)] (Merck MilliporeSigma), washed, and then added to a 25-μl reaction containing assay buffer [50 mM Hepes-NaOH (pH 7.4), 1 mM DTT, and 0.02% (v/v) Brij-35], 200 μM synthetic peptide substrate (SAMS, CaMKKtide, or S108tide), 200 or 20 μM [γ-^32P]-ATP (PerkinElmer), 5 mM MgCl2, in the presence of 0 to 1 μM BAY-3827 or BAY-974. Reactions were performed at 30°C and terminated after 10 min by spotting 15 μl onto phosphocellulose paper. Radioactivity was quantified by liquid scintillation counting. Data visualization and nonlinear regression fitting were performed in GraphPad Prism v10.
(§2) Data points are plotted as means ± SEM. Data were inputted, and all statistical tests were performed using GraphPad Prism, version 10.1.0. One- or two-way analysis of variance (ANOVA) statistical tests were conducted using Tukey’s correction for multiple comparisons; specific test will be stated in the figure legend. Significance was accepted as P < 0.05. N number and statistical details for each experiment are reported in each figure legend. […] To estimate IC50 values, nonlinear regression fitting was conducted using the model (Inhibitor) versus response—variable slope in GraphPad Prism (version 10.1.0) and estimating values reported in nanomolar. To estimate binding affinities (Kd) from performed spectral shift binding assays, data were fitted using a one-site total model [Y = BmaxX/(Kd + X) + NSX + Background] where X is the ligand concentration, Bmax represents the maximum binding, and NS is the slope of the nonlinear regression of Y/X. Values are reported in means ± SEM in micromolar.

[3] = molecular target: T2, AMPKα2β1γ1 (Homo sapiens, UniProt P54619+P54646+Q9Y478); assay: Cell-free AMPK kinase assay (SAMS peptide); assay type: biochemical
T2 construct: made in house; host or cells: HEK293 (transient transfection, anti-FLAG immunoprecipitate)
T2 sequence (P54646 whole entry): as the sequence (P54646 whole entry) above
T2 sequence (Q9Y478 whole entry partner): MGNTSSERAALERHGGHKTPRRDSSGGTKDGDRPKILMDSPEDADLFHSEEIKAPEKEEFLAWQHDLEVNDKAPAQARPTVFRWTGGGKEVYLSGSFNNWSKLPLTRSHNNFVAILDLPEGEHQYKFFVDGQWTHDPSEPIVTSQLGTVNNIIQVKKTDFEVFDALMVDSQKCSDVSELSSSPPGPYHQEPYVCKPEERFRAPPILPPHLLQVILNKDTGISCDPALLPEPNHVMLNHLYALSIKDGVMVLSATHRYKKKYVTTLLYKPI
T2 sequence (P54619 whole entry partner): as the sequence (P54619 whole entry partner) above
Method: as §1, §2

[4] = molecular target: T3, AMPKα1β1γ1 (Homo sapiens, UniProt P54619+Q13131+Q9Y478); assay: Cell-free AMPK kinase assay (SAMS peptide); assay type: biochemical
T3 construct: made in house; host or cells: HEK293 (transient transfection, anti-FLAG immunoprecipitate)
T3 sequence (Q13131 whole entry): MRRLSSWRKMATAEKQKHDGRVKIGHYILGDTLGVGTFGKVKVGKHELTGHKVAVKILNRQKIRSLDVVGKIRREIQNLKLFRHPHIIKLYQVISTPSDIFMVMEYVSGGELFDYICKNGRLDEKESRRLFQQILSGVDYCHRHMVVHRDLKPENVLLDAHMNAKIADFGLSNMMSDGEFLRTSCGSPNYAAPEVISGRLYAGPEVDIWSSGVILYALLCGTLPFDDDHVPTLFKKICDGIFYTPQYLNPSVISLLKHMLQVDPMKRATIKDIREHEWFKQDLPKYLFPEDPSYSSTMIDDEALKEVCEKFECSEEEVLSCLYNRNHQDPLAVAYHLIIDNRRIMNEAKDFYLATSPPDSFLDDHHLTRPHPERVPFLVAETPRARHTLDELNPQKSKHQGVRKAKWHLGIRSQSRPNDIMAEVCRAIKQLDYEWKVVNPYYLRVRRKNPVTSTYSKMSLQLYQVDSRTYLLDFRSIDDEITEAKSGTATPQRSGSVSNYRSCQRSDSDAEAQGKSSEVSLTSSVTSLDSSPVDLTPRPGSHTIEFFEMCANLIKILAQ
T3 sequence (Q9Y478 whole entry partner): as the sequence (Q9Y478 whole entry partner) above
T3 sequence (P54619 whole entry partner): as the sequence (P54619 whole entry partner) above
Method: as §1, §2

[5] = system: mouse primary adipocytes; assay: Glucose uptake of primary adipocytes; assay type: cell-based; conditions: varying doses
[6] = molecular target: T4, AMPKα2β1γ1 (Homo sapiens, UniProt P54646); assay: Cell-free AMPK kinase assay (SAMS peptide); assay type: biochemical; conditions: 200 μM ATP; 0 to 1 μM BAY-974
T4 construct: made in house; host or cells: HEK293 (transient transfection, anti-FLAG immunoprecipitate)
T4 sequence (P54646 whole entry): as the sequence (P54646 whole entry) above
T4 sequence (Q9Y478 whole entry partner): as the sequence (Q9Y478 whole entry partner) above
T4 sequence (P54619 whole entry partner): as the sequence (P54619 whole entry partner) above
Method: as §1, §2

[7] = molecular target: T5, AMPKα1β1γ1 (Homo sapiens, UniProt Q13131); assay: Cell-free AMPK kinase assay (SAMS peptide); assay type: biochemical; conditions: 200 μM ATP; 0 to 1 μM compound
T5 construct: made in house; host or cells: HEK293 (transient transfection, anti-FLAG immunoprecipitate)
T5 sequence (Q13131 whole entry): as the sequence (Q13131 whole entry) above
T5 sequence (Q9Y478 whole entry partner): as the sequence (Q9Y478 whole entry partner) above
T5 sequence (P54619 whole entry partner): as the sequence (P54619 whole entry partner) above
Method: as §1, §2

[8] = molecular target: T6, AMPKα2β2γ1 (Homo sapiens, UniProt P54646); assay: Cell-free AMPK kinase assay (SAMS peptide); assay type: biochemical; conditions: 200 μM ATP; 0 to 1 μM compound
T6 construct: made in house; host or cells: HEK293 (transient transfection, anti-FLAG immunoprecipitate)
T6 sequence (P54646 whole entry): as the sequence (P54646 whole entry) above
T6 sequence (O43741 whole entry partner): as the sequence (O43741 whole entry partner) above
T6 sequence (P54619 whole entry partner): as the sequence (P54619 whole entry partner) above
Method: as §1, §2

Row | SMILES | IC50 ([1]; + MK-8722 (10 μM)) | IC50 ([1]; without MK-8722) | IC50 ([2]; 20 μM ATP) | IC50 ([2]; 200 μM ATP) | IC50 ([3]; 20 μM ATP) | IC50 ([3]; 200 μM ATP) | IC50 ([4]; 20 μM ATP) | IC50 ([4]; 200 μM ATP) | basal and insulin-stimulated glucose uptake [5] | inhibition of ACC1 phosphorylation ([1]; up to highest tested concentration of 100 μM) | inhibitory effect on AMPK complex [6] | inhibitory effect on AMPK complex [7] | inhibitory effect on AMPK complex [8]
1 | CCc1ccccc1C(=O)Nc1n[nH]c2c(C)c(F)c(C3C(C#N)=C(C)N(C)C(C)=C3C#N)cc12 [BAY-3827, N-[5-(3,5-dicyano-1,2,6-trimethyl-4H-pyridin-4-yl)-6-fluoro-7-methyl-1H-indazol-3-yl]-2-ethylbenzamide] | 6360 nM | 930 nM | 2.8 nM and 2.83 nM | 36.5 nM | 4.1 nM and 4.08 nM | 57 nM and 57.1 nM | 1.8 nM | 31.2 nM | not significantly affected |  |  |  | 
2 | CC1=C(C#N)C(c2ccc3c(c2)c(NC(=O)c2ccccc2C)nn3C)C(C#N)=C(C)N1 [BAY-974, N-[5-(3,5-dicyano-2,6-dimethyl-1,4-dihydropyridin-4-yl)-1-methylindazol-3-yl]-2-methylbenzamide] |  |  |  |  |  |  |  |  |  | No inhibition | no effect | no effect | no effect
